Experimental data taken from patent US6989389B2, “Aryl ether substituted imidazoquinolines” (3M Innovative Properties Co., priority 2000, dated 2006).
Where two headings read alike, the source gives them in different places.

Assays:
[1] = system: Peripheral blood mononuclear cells (PBMC); assay: Cytokine Induction in Human Cells (in vitro human blood cell system, IFN and TNF secreted into culture media); type: cell-based; design: key to Lowest Effective Concentration (μM) Tumor Necrosis Factor / Lowest Effective Concentration (μM) Interferon: *: no induction was seen at any of the tested concentrations; settings: 18 to 24 hours, tested 30-0.014 μM; for minimal effective concentration: Homo sapiens, PBMC
Summary of the method: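 Human donor PBMC (2×10^6 cells/mL, RPMI complete) incubated 18–24 h at 37 °C, 5% CO2 with compound, 3-fold dilutions 30–0.014 μM, ≤1% DMSO. IFN-α measured by ELISA, TNF-α by ELISA or IGEN immunoassay in supernatants (pg/mL). Value is lowest concentration inducing each cytokine.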

[2] = lowest concentration found to induce interferon (α), ELISA, read-out: Lowest Effective Concentration (μM) Interferon
[3] = lowest concentration found to induce tumor necrosis factor (α), ELISA or IGEN assay
[4] = lowest concentration found to induce tumor necrosis factor (α), ELISA or IGEN assay, read-out: Lowest Effective Concentration (μM) Tumor Necrosis Factor
[5] = lowest concentration found to induce interferon (α), ELISA

Row | SMILES | minimal effective concentration [1, 2] | Lowest Effective Concentration (μM) Tumor Necrosis Factor [1, 3] | melting point | minimal effective concentration [1, 4] | Lowest Effective Concentration (μM) Interferon [1, 5]
1 | Nc1nc2ccccc2c2c1ncn2COCc1ccccc1 [Example 113, 1-[(Benzyloxy)methyl]-1H-imidazo[4,5-c]quinolin-4-amine] | 1.11 µM | * | 168 to 172 °C |  | 
2 | CCOCc1nc2c(N)nc3ccccc3c2n1CCOCc1ccccc1 [Example 125, 1-[2-(Benzyloxy)ethyl]-2-(ethoxymethyl)-1H-imidazo[4,5-c]quinolin-4-amine] | 0.01 µM |  | 144.5 to 146 °C | 0.37 µM | 
3 | CCCCCCCCc1nc2c(N)nc3ccccc3c2n1CCOCCCc1ccccc1 [Example 117, 2-Octyl-1-[2-(3-phenylpropoxy)ethyl]-1H-imidazo[4,5-c]quinolin-4-amine] |  | * | 103.8 to 104.5 °C |  | *
4 | Cc1cccc(C)c1C#CCOCCn1cnc2c(N)nc3ccccc3c21 [Example 8, 1-(2-{[3-(2,6-Dimethylphenyl)-2-propynyl]oxy}ethyl)-1H-imidazo[4,5-c]quinolin-4-amine] | 1.11 µM |  | 200 to 201 °C | 10 µM | 
5 | Nc1nc2ccccc2c2c1nc(CCC1CCCC1)n2CCOc1ccccc1 [Example 138, 2-(2-Cyclopentylethyl)-1-(2-phenoxyethyl)-1H-imidazo[4,5-c]quinolin-4-amine] | 1.11 µM | * | 165 °C |  | 
6 | COCCc1nc2c(N)nc3ccccc3c2n1CCOCC#Cc1ccccc1 [Example 120, 2-(Methoxyethyl)-1-{2-[(3-phenylprop-2-ynyl)oxy]ethyl}-1H-imidazo[4,5-c]quinolin-4-amine] | 0.01 µM |  | 134.5 to 135.5 °C | 0.01 µM | 
7 | N#Cc1ccccc1C#CCOCCn1cnc2c(N)nc3ccccc3c21 [Example 2, 2-{3-[2-(4-Amino-1H-imidazo[4,5-c]quinolin-1-yl)ethoxy]-1-propynyl}benzonitrile] | 1.11 µM | * | 180 to 183 °C |  | 
8 | Cc1nc2c(N)nc3ccccc3c2n1CCOCc1ccccc1 [Example 127, 1-[2-(Benzyloxy)ethyl]-2-methyl-1H-imidazo[4,5-c]quinolin-4-amine] | 0.01 µM |  | 159 to 160 °C | 0.12 µM | 
9 | CC[C@H](COCC#Cc1ccccc1)n1cnc2c(N)nc3ccccc3c21 [Example 108, 1-((1R)-1-{[(3-Phenylprop-2-ynyl)oxy]methyl}propyl)-1H-imidazo[4,5-c]quinolin-4-amine] | 0.00017 µM |  | 63 to 67 °C | 0.04 µM | 
10 | Nc1nc2ccccc2c2c1nc(C1CCOC1)n2CCOc1ccccc1 (stereo not drawn) [Example 139, 1-(2-Phenoxyethyl)-2-tetrahydrofuran-3-yl-1H-imidazo[4,5-c]quinolin-4-amine] |  | * | 235.9 to 236.3 °C |  | *
11 | COCCc1nc2c(N)nc3ccccc3c2n1CCOc1ccccc1 [Example 129, 2-(2-Methoxyethyl)-1-(2-phenoxyethyl)-1H-imidazo[4,5-c]quinolin-4-amine] | 0.01 µM |  | 171 to 174 °C | 0.04 µM | 
